Test results published in US20210128685A1, “PEDF-DERIVED PEPTIDES FOR PROMOTING MEIBOMIAN GLAND REGENERATION AND USES THEREOF” (BRIM Biotechnology, Inc., priority 2018, published 2021).

Assays:
[1] = tested on: limbus stem cells; settings: rabbit; cited from earlier work
[2] = Alanine scanning and variants of the 29-mer (activities)
[3] = tested on: acinar progenitor cells; test: 5-Bromo-2'-deoxyuridine (BrdU) incorporation assay in upper eyelids after subconjunctival injection; format: in vivo, C57BL/6 mice; settings: for BrdU-positive cells per acinus: 24 hours after subconjunctival injection; for BrdU-positive cells in acinar base (cell proliferation): day 5 after single subconjunctival injection
Protocol: (§1) Twelve to fifteen (12-15) months old C57BL/6 mice and 4-8 months old C57BL/6 mice were used. These mice were kept in standard pathogen-free environment at 24° C.±1° C., relatively humidity 60%±10%. All procedures were approved by the Mackay Memorial Hospital Review Board for animal investigation and were conducted in accordance with the ARVO statement for the Use of Animals in Ophthalmic and Vision Research. Mice were anesthetized by an intraperitoneal injection of a mixture of zoletil (6 mg/kg) and xylazine (3 mg/kg). One drop of 0.5% proparacaine hydrochloride (Alcaine; Alcon, Fort Worth, Tex., USA) was given before any ocular procedure.
(§2) The 29-mer was reconstituted in DMSO to a final concentration 100 μM. A separated dose of 10 μl of 29-mer (100 μM) mixed with 90 μl of phosphate-buffered saline (PBS) was injected into the upper and lower conjunctival fornix. 10 μl of DMSO mixed with 90 μl of PBS served as a control. To evaluate the effect of 29-mer on tear film break-up time (TBUT) and tear secretion of old mice, subconjunctival injection of 29-mer was introduced weekly till one month and then followed up for two months.
After subconjunctival injection of 29-mer or DMSO, 5-Bromo-2′deoxyuridine (BrdU) 0.1 mg/g of body weight was injected intraperitoneally. The upper eyelids were harvested at 24 hours to evaluate the proliferation of acinar progenitor cells. To study the mitosis of cells, mice were administered by intraperitoneal injections of BrdU daily for 3 days, and the upper eyelids were harvested at day 5. Before performing immunohistochemistry of BrdU, slides were treated with 1 N HCL at 95° C. for 20 minutes.
Immunohistochemistry (IHC) was performed as previously described and modified.^22 Formalin-fixed, paraffin-embedded, mice specimens were deparaffinized in xylene and rehydrated in a graded series of ethanol concentrations. Slides were blocked with 10% goat serum for 60 minutes and then incubated with primary antibody against BrdU (1:800 dilution), PEDF (1:50), or p63 (1:200) overnight at 4° C. The slides were subsequently incubated with the appropriate peroxidase-labeled goat immunoglobulin (1:500 dilution; Chemicon, Temecula, Calif.) for 20 minutes and then incubated with chromogen substrate (3,3-diaminobenzidine) for 2 minutes before counterstaining with hematoxylin. Quantification was estimated based on high quality images captured using a Pannoramic digital slide scanners (3Dhistech Ltd. Budapest, Hungary).

[4] = tested on: acinar progenitor cells (p63-expressing cells); test: Immunohistochemistry of stem cell marker p63 in upper eyelids 5 days after single treatment; format: in vivo, C57BL/6 mice; settings: aging (old) mice
Protocol: as §1
(§3) The 29-mer was reconstituted in DMSO to a final concentration 100 μM. A separated dose of 10 μl of 29-mer (100 μM) mixed with 90 μl of phosphate-buffered saline (PBS) was injected into the upper and lower conjunctival fornix. 10 μl of DMSO mixed with 90 μl of PBS served as a control. […]
Immunohistochemistry (IHC) was performed as previously described and modified.^22 Formalin-fixed, paraffin-embedded, mice specimens were deparaffinized in xylene and rehydrated in a graded series of ethanol concentrations. […] Quantification was estimated based on high quality images captured using a Pannoramic digital slide scanners (3Dhistech Ltd. Budapest, Hungary).

[5] = Tear film break-up time (TBUT); format: in vivo, C57BL/6 mice; settings: old mice, weekly subconjunctival injection up to 4 weeks; week 1 to week 4, difference significant up to 8 weeks
Protocol: as §1, §3
To avoid the reduced lipids secretion resulting from no eye blinking under long-term anesthesia, Tear break-up time (TBUT)^19,20 was performed immediately after mice were anesthetized. […] After three compulsory blinks, TBUT was recorded in […] under a slit-lamp with a blue-free barrier filter. […]

[6] = Measurement of tear volume (phenol red thread tear test); format: in vivo, C57BL/6 mice; settings: old mice, weekly subconjunctival injection up to 4 weeks; weeks 1, 2, 3, 4 and 8
Protocol: as §1, §3
The amount of tears was measured with the phenol red thread tear test using ZONE-QUICK cotton threads (Yokota, Tokyo, Japan).^19,20 After general anesthesia, the lower eyelid was pulled down slightly, and a 1 mm portion of the thread was placed on the palpebral conjunctiva at the point ⅓ of the distance from the lateral canthus. […] The red portion of the thread is measured in millimeters.

[7] = tested on: Meibomian gland; test: Eyelid whole mount Oil Red O (ORO) staining, MG size; format: in vivo, C57BL/6 mice; settings: old mice, weekly subconjunctival injection, at one month
Protocol: as §1, §3
At one month, upper eyelids were subjected to whole mount Oil Red O (ORO) staining. The size of MG tissue in whole mount was quantified using the color range selection and histogram tool with a computer-assisted image analyzer (Adobe Photoshop 7.0) and was calculated in Pixels. […]

[8] = tested on: meibocytes; test: Oil Red O staining of eyelid cryosections for lipids; format: in vivo, C57BL/6 mice; settings: old mice, versus DMSO
Protocol: as §1, §2
Eyelid tissues were embedded in OCT and sectioned at 8 μm of thickness. Frozen sections were placed in 60% 2-propanol for 1 minute, stained with filtered ORO solution for 15 minutes, rinsed with PBS and counterstained with hematoxylin.^4

[9] = tested on: myogenic stem cells and C2C12 myoblasts; settings: cited from earlier work

**Q.** With “44-mer: 44-mer motif of PEDF, amino acid positions Val78-Thr121 (VLLSPLSVATALSALSLGAEQRTESIIHRALYYDLISSPDIHGT; UniProt P36955 78-121, looked up, fragment)” as the substance, how does the “stem cells proliferation and regeneration in the limbus” value [1] read?
**A.** induce stem cells proliferation and regeneration

**Q.** With “SLGAEHRTESVIHR (listed as Mus musculus) [mo-14mer, mouse variant of the 14-mer]” as the substance, how does the “activities of 29-mer variants” value [2] read?
**A.** active

**Q.** For “SLGAEHRTESVIHRALYYDLITNPDIHST (listed as Mus musculus) [mo-29mer, mouse variant of the 29-mer]”, which “activities of 29-mer variants” value [2] is on record?
**A.** active

**Q.** What does the source list for “SLGAEQRTESIIHRALYYDLISSPDIHGT (listed as Homo sapiens) [29-mer, PEDF-derived short peptide, human PEDF residues 93-121 (Ser93-Thr121)]”?
**A.** BrdU-positive cells per acinus ([3]; old mice): 1.67±0.58 cells/per acinus; BrdU-positive cells in acinar base (cell proliferation) ([3]; old mice): 4.29±1.19; BrdU-positive cells per acinus ([3]; young mice): 2.35±0.73 cells/per acinus; BrdU-positive cells in acinar base (cell proliferation) ([3]; young mice): 6.70±1.35; number of p63-expressing cells per acinus [4]: 10.98±2.75; TBUT versus control [5]: significantly longer; Tear secretion test versus control [6]: invariant; MG acinar size, whole mount ORO, upper eyelids [7]: 2347530±34986.4 pixels/eyelid; ORO staining within the cytoplasm of differentiating meibocytes, cross sections [8]: more overall ORO staining; proliferation of myogenic stem cells and C2C12 myoblasts [9]: induce proliferation
